Toxic doses and inconclusive results are not listed. Rule as the data show it: active = T/C of 150% or more; inactive = T/C below 125%.
Test system: L1210 leukemia ip in BDF1 mice, survival T/C
Assay: NCI In Vivo Anticancer Drug Screen. Data for tumor model L1210 Leukemia (intraperitoneal) in B6D2F1 (BDF1) mice
Conditions: endpoint: mean survival time, higher = longer survival
Outline: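 Survival endpoint. Drug-treated group vs vehicle group, expressed as T divided by C. Tumor passaged by transplantation.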

[1] = dose: 100.0 mg/kg/injection, schedule: Q04DX003 (ip), vehicle: saline
[2] = dose: 200.0 mg/kg/injection, schedule: Q04DX003 (ip), vehicle: saline
[3] = dose: 100.0 mg/kg/injection, schedule: Q04DX002 (ip), vehicle: saline with Tween-80
[4] = dose: 200.0 mg/kg/injection, schedule: Q04DX002 (ip), vehicle: saline with Tween-80
[5] = dose: 400.0 mg/kg/injection, schedule: Q04DX002 (ip), vehicle: saline with Tween-80
[6] = dose: 100.0 mg/kg/injection, schedule: Q04DX003 (ip), vehicle: saline with Tween-80
[7] = dose: 200.0 mg/kg/injection, schedule: Q04DX003 (ip), vehicle: saline with Tween-80
[8] = dose: 100.0 mg/kg/injection, schedule: Q04DX002 (ip), vehicle: Klucel (hydroxypropylcellulose) (HPC)
[9] = dose: 200.0 mg/kg/injection, schedule: Q04DX002 (ip), vehicle: Klucel (hydroxypropylcellulose) (HPC)
[10] = dose: 400.0 mg/kg/injection, schedule: Q04DX002 (ip), vehicle: Klucel (hydroxypropylcellulose) (HPC)
[11] = dose: 400.0 mg/kg/injection, schedule: Q04DX003 (ip), vehicle: saline with Tween-80
[12] = dose: 100.0 mg/kg/injection, schedule: Q01DX009 (ip), vehicle: Klucel (hydroxypropylcellulose) (HPC)
[13] = dose: 100.0 mg/kg/injection, schedule: Q04DX003 (ip), vehicle: Klucel (hydroxypropylcellulose) (HPC)
[14] = dose: 200.0 mg/kg/injection, schedule: Q04DX003 (ip), vehicle: Klucel (hydroxypropylcellulose) (HPC)
[15] = dose: 400.0 mg/kg/injection, schedule: Q04DX003 (ip), vehicle: Klucel (hydroxypropylcellulose) (HPC)
[16] = dose: 100.0 mg/kg/injection, schedule: Q01DX001 (ip), vehicle: saline with Tween-80
[17] = dose: 200.0 mg/kg/injection, schedule: Q01DX001 (ip), vehicle: saline with Tween-80
[18] = dose: 400.0 mg/kg/injection, schedule: Q01DX001 (ip), vehicle: saline with Tween-80

Measured: T/C

CC1=C(/C=C/C(C)=N/NC(N)=O)C(C)(C)CCC1
inactive: dose: 100.0 mg/kg/injection, schedule: Q01DX009 (ip), vehicle: saline 100 % of control | [1] 94 % of control | dose: 200.0 mg/kg/injection, schedule: Q01DX009 (ip), vehicle: saline 100 % of control | [2] 102 % of control | dose: 400.0 mg/kg/injection, schedule: Q04DX003 (ip), vehicle: saline 96 % of control

CCCCCCCCOC(=O)CCCCl
inactive: [3] 107 % of control | [4] 100 % of control | [5] 102 % of control

COc1cc([N+](=O)[O-])c2c(ccc[n+]2C)c1OC
inactive: [6] 98 % of control | [7] 89 % of control

NC(=O)CSSCC(N)=O
inactive: [1] 98 % of control | [2] 93 % of control

Oc1ccc2ccccc2c1/C=N/N1CCN(/N=C/c2c(O)ccc3ccccc23)CC1
inactive: dose: 100.0 mg/kg/injection, schedule: Q01DX001 (ip), vehicle: saline 104 % of control | dose: 200.0 mg/kg/injection, schedule: Q01DX001 (ip), vehicle: saline 96 % of control | dose: 400.0 mg/kg/injection, schedule: Q01DX001 (ip), vehicle: saline 90 % of control

CCOC(=O)C(=CNc1cc(NC(C)=O)nc(SC)n1)C(=O)OCC
inactive: [8] 96 % of control | [9] 103 % of control | [10] 96 % of control

CC(Cc1ccc2c(c1)OCO2)C(C)Cc1ccc2c(c1)OCO2 (stereo unspecified)
inactive: dose: 100.0 mg/kg/injection, schedule: Q01DX009 (ip), vehicle: other 102 % of control | dose: 100.0 mg/kg/injection, schedule: Q04DX003 (ip), vehicle: other 90 % of control | dose: 200.0 mg/kg/injection, schedule: Q01DX009 (ip), vehicle: other 109 % of control | dose: 200.0 mg/kg/injection, schedule: Q04DX003 (ip), vehicle: other 102 % of control | dose: 400.0 mg/kg/injection, schedule: Q01DX009 (ip), vehicle: other 91 % of control | dose: 400.0 mg/kg/injection, schedule: Q04DX003 (ip), vehicle: other 90 % of control

CCC1CN2C(=N1)c1ccccc1-c1cc(Cl)cc(Cl)c12 (stereo unspecified)
inactive: dose: 100.0 mg/kg/injection, schedule: Q01DX005 (ip), vehicle: Klucel (hydroxypropylcellulose) (HPC) 88 % of control | [8] 107 % of control | dose: 200.0 mg/kg/injection, schedule: Q01DX005 (ip), vehicle: Klucel (hydroxypropylcellulose) (HPC) 94 % of control | [9] 101 % of control | dose: 400.0 mg/kg/injection, schedule: Q01DX005 (ip), vehicle: Klucel (hydroxypropylcellulose) (HPC) 102 % of control | [10] 101 % of control

CC(C)(C)[C]1=Nc2cccc[c]2[Ge]1([CH3])[CH3]
inactive: [3] 108 % of control | [4] 93 % of control | [5] 97 % of control

COc1cc(C=Nc2ccc(-c3csc(COc4ccccc4)n3)c(Cl)c2)ccc1N(CCCl)CCCl
inactive: dose: 5.0 mg/kg/injection, schedule: Q01DX015 (ip), vehicle: carboxymethylcellulose (CMC) 111 % of control | dose: 10.0 mg/kg/injection, schedule: Q01DX015 (ip), vehicle: carboxymethylcellulose (CMC) 113 % of control | dose: 20.0 mg/kg/injection, schedule: Q01DX015 (ip), vehicle: carboxymethylcellulose (CMC) 104 % of control | dose: 44.0 mg/kg/injection, schedule: Q01DX015 (ip), vehicle: carboxymethylcellulose (CMC) 97 % of control | dose: 200.0 mg/kg/injection, schedule: Q01DX001 (sc), vehicle: carboxymethylcellulose (CMC) 118 % of control

CSC(S(C)(=O)=O)S(C)(=O)=O
inactive: [6] 90 % of control | [7] 96 % of control | [11] 98 % of control

CC(=O)Nc1cc(Cl)cc2c1-c1c(Cl)cc(Cl)cc1C2
inactive: [12] 92 % of control | [13] 92 % of control | [14] 105 % of control | [15] 105 % of control

O=C(Nc1ccc(Cl)cc1)OCC#CCOC(=O)Nc1ccc(Cl)cc1
inactive: dose: 75.0 mg/kg/injection, schedule: Q04DX003 (ip), vehicle: Klucel (hydroxypropylcellulose) (HPC) 93 % of control | [16] 90 % of control | [6] 88 % of control | dose: 150.0 mg/kg/injection, schedule: Q04DX003 (ip), vehicle: Klucel (hydroxypropylcellulose) (HPC) 93 % of control | [17] 88 % of control | dose: 300.0 mg/kg/injection, schedule: Q04DX003 (ip), vehicle: Klucel (hydroxypropylcellulose) (HPC) 98 % of control | [18] 90 % of control | [11] 90 % of control

CN(C)/N=C\c1cccnc1
inactive: [1] 112 % of control | [2] 86 % of control

COc1cccc(C2NC(=S)N3C(c4cccc(OC)c4)NC(=S)N23)c1 (stereo unspecified)
inactive: dose: 100.0 mg/kg/injection, schedule: Q01DX009 (ip), vehicle: gum acacia 108 % of control | dose: 100.0 mg/kg/injection, schedule: Q04DX003 (ip), vehicle: gum acacia 88 % of control | dose: 200.0 mg/kg/injection, schedule: Q01DX009 (ip), vehicle: gum acacia 99 % of control | dose: 200.0 mg/kg/injection, schedule: Q04DX003 (ip), vehicle: gum acacia 100 % of control | dose: 400.0 mg/kg/injection, schedule: Q01DX009 (ip), vehicle: gum acacia 93 % of control | dose: 400.0 mg/kg/injection, schedule: Q04DX003 (ip), vehicle: gum acacia 95 % of control

O=C/C(=C/Nc1ccc(C(=O)O)cc1)[N+](=O)[O-]
inactive: [8] 109 % of control | [9] 98 % of control | [10] 98 % of control

CCCC(CCC)NCC(C)O (stereo unspecified)
inactive: dose: 75.0 mg/kg/injection, schedule: Q01DX001 (ip), vehicle: acid diluted with saline 104 % of control

CCCN(CCC)S(=O)(=O)CCC
inactive: dose: 50.0 mg/kg/injection, schedule: Q04DX002 (ip), vehicle: saline with Tween-80 97 % of control | [3] 97 % of control | [4] 101 % of control

CC(CC(=O)O)C(C(=O)O)C(=O)O (stereo unspecified)
inactive: dose: 25.0 mg/kg/injection, schedule: Q01DX009 (ip), vehicle: water 110 % of control | dose: 50.0 mg/kg/injection, schedule: Q01DX009 (ip), vehicle: water 108 % of control | dose: 100.0 mg/kg/injection, schedule: Q01DX009 (ip), vehicle: water 106 % of control | dose: 200.0 mg/kg/injection, schedule: Q01DX009 (ip), vehicle: water 101 % of control

CCCCN(Cl)CCCC
inactive: dose: 100.0 mg/kg/injection, schedule: Q04DX002 (ip), vehicle: saline + alcohol 101 % of control

COc1cccc2c1C(=O)c1c(O)c3c(c(O)c1C2=O)CC(O)(/C(C)=N/NC(=O)c1ccccc1)CC3OC1CC(N)C(O)C(C)O1 (stereo unspecified)
inactive: dose: 200.0 mg/kg/injection, schedule: Q04DX003 (ip), vehicle: water 124 % of control

CCCCCCCCN(C=O)CCCCCCCC
inactive: [3] 98 % of control

C/C(=N/C(=O)NN)c1ccc(Cl)cc1
inactive: [16] 108 % of control | [6] 93 % of control | [17] 95 % of control | [7] 98 % of control | [18] 101 % of control

CCOC(=O)/C(C)=N\Nc1ccc(Cl)cc1
inactive: [12] 106 % of control | [13] 102 % of control | dose: 200.0 mg/kg/injection, schedule: Q01DX009 (ip), vehicle: Klucel (hydroxypropylcellulose) (HPC) 98 % of control | [14] 98 % of control | dose: 400.0 mg/kg/injection, schedule: Q01DX009 (ip), vehicle: Klucel (hydroxypropylcellulose) (HPC) 98 % of control | [15] 99 % of control
